Measured values reported in patent US11077090B2, “Compounds and compositions and uses thereof” (Sunovion Pharmaceuticals Inc., priority 2016, dated 2021).

Columns and labels:
[1] = tested on: extracellular concentrations of neurotransmitters (DA, 5-HT, NE, ACh) in the prefrontal cortex (PFC); test: In vivo microdialysis of the prefrontal cortex; parameters: key: −: No change in extracellular concentration (P < 0.05 vs vehicle); +: Significant increase in extracellular concentration (P < 0.05 vs vehicle); details: mice
Source text: (§1) In vivo microdialysis is a biological sampling technique used to evaluate the extracellular concentrations of neurotransmitters in specific brain regions following administration of a test compound to animals. Dysfunctions of brain neurotransmitter systems, such as dopamine (DA), norepinephrine (NE), serotonin (5-HT) and/or acetylcholine (ACh), have been linked to cognitive deficits (e.g., memory impairment, inattention, etc.), which may be observed in human aging, Alzheimer's disease (AD) and Attention Deficit Hyperactivity Disorder (ADHD). Drugs that increase extracellular concentrations of DA, NE, 5-HT and/or ACh in the prefrontal cortex (PFC), such as donepezil and methylphenidate, can reverse cognitive deficits in humans and animals.
(§2) Adult male C57Bl/6 mice (n=6 per group) from Jackson Laboratories were anesthetized using isoflurane (2%, 800 mL/min O2). Bupivacaine/epinephrine was used for local anesthesia and carprofen was used for peri-/post-operative analgesia. The animals were placed in a stereotaxic frame (Kopf instruments, USA) and I-shaped microdialysis probes (polyacrylonitril membrane, BrainLink, the Netherlands) were inserted into the PFC (2 mm exposed membrane; coordinates for the tips of the probes: posterior (AP)=+2.0 mm to bregma, lateral (L)=−0.5 mm to midline and ventral (V)=−3.3 mm to dura, the toothbar set at 0.0 mm) and the NAcc (coordinates for the tips of the probes: posterior (AP)=+0.8 mm to bregma, lateral (L)=+0.9 mm to midline and ventral (V)=−4.2 mm to dura, the toothbar set at 0.0 mm (Paxinos and Franklin, 2001)). After surgery, animals were housed individually in cages and provided food and water ad libitum. In vivo microdialysis experiments were performed one day after surgery. On the day of the experiment, the microdialysis probes were connected with flexible PEEK tubing to a microperfusion pump (Harvard PHD 2000 Syringe pump, Holliston, Mass. or similar). Microdialysis probes were perfused with artificial cerebrospinal fluid (aCSF) containing 147 mM NaCl, 3.0 mM KCl, 1.2 mM CaCl2 and 1.2 mM MgCl2, at a flow rate of […]. Microdialysis samples were collected for 30 minute periods by an automated fraction collector (820 Microsampler, Univentor, Malta or similar) into polystyrene mini-vials already containing 15 μL of 0.02 M formic acid (FA) and 0.04% ascorbic acid in ultrapurified H2O. Four basal samples were collected before the administration of vehicle or test compound (i.p., 5 mL/kg injection volumes). Samples were collected for an additional 240 min following vehicle or compound administration. All the dialysis samples were stored at −80° C. awaiting analysis. After the experiment, the mice were sacrificed and brain tissue was collected for probe verification. Each dialysis sample was analyzed for concentrations of DA, NE, 5-HT and ACh as determined by HPLC with tandem mass spectrometry (MS/MS) detection using labeled isotopes of the analytes of interest as internal standards. Data was expressed as a percentage of basal output, calculated by dividing each post-dose time point with the average basal output=100%. An increase in the post-dose percent basal output of DA, NE, 5-HT and/or ACh in the PFC relative to the vehicle condition indicates a potential cognition-enhancing drug-like response. Graphical representations of the observed changes in neurotransmitter concentrations are shown in the indicated Figures.

[2] = tested on: extracellular concentrations of neurotransmitters (DA, 5-HT, NE, ACh) in the nucleus accumbens (NAcc); test: In vivo microdialysis of the nucleus accumbens; parameters: key: −: No change in extracellular concentration (P < 0.05 vs vehicle); +: Significant increase in extracellular concentration (P < 0.05 vs vehicle); details: mice
Source text: as §1, §2

male Sprague-Dawley rats = test: Stress induced hyperthermia (SIH) assay; assay type: in vivo; parameters: key: −: No change in Delta T ([…]T); +: Significant decrease in Delta T ([…]T) (P < 0.05 vs vehicle)
Source text: Stress-induced hyperthermia (SIH), mediated by the autonomic nervous system, is well known to occur prior to and during exposure to stress and/or anxiety-inducing situations. In many human anxiety disorders, it occurs as an integral part of the pathology and is often considered a representative symptom of the disease, e.g. in generalized anxiety disorder as defined in DSM-IV. In rodents, acute administration of anxiolytic drugs, such as buspirone or chlordiazepoxide (CDP), are known to reduce the SIH response to stressors such as handling, noise, heat, novelty, or pain. The test involves two measures of rectal temperature repeated in the same animal with a 10-minute interval. On the day prior to testing, male Sprague-Dawley rats from Envigo (n=10 per group) were brought to the experimental room approximately one hour before scheduled lights out and singly housed overnight with food and water ad libitum. On the morning of the experiment, animals were first injected with either vehicle or test compound orally by gavage, or CDP (10 mg/kg, i.p.). One hour following injection, each animal was removed from the holding cage and held in a supine position while the rectal temperature was measured by slowly inserting a rectal probe into the animal's rectum at a length of approximately 0.5 cm. The rectal probe was attached to a PhysiTemp digital thermometer (Fisher Scientific) which provides temperature readings at 0.1° C. accuracy. The probe remained inside the animal for approximately 5 seconds or until body temperature reaches stability. This temperature was recorded as the baseline rectal temperature (T1). The animal was immediately placed back to the holding cage and after a 10-min interval the second rectal temperature (T2) was taken using the same procedure as in measuring T1. Before each insertion, the rectal probe was cleaned with an alcohol pad and lubricated with sterile K-Y jelly. All SIH studies were conducted between 8:00-11:00 a.m. The SIH response was calculated as the difference in temperature between the second and first temperature reading (Delta T, […]T). A reduction in […]T relative to the vehicle condition indicates an anxiolytic drug-like response.

Male C57Bl/6J mice = test: Marble burying test; assay type: in vivo; parameters: key: −: No reduction in number of marbles buried; +: Significant reduction in number of marbles buried (P < 0.05 vs vehicle); details: 1 mg/kg (i.p.)
Description: The marble burying assay is used to evaluate the anxiolytic activity of a test compound. After placement in a novel cage containing glass marbles, mice will bury the marbles. Acute administration of anxiolytic agents, as well as antidepressants, decrease this activity at non-sedating doses. Male C57Bl/6J mice from Jackson Laboratories were used in this study and were acclimatized to the experimental room for at least 1 hour prior to testing. Mice (n=10 per group) were administered sterile water or test compound intraperitoneally (i.p.) or orally by gavage (p.o.), or the positive control chlordiazepoxide (15 mg/kg, i.p.), in 10 mL/kg injection volumes, and returned to their home cages for a 30-minute pretreatment period. The mice were then placed individually in clean cages, containing hard wood bedding and twenty black marbles placed in spaced rows of 4×5. After a 30-minute test session, the number of buried marbles was counted. A marble was considered buried if it was pushed at least two thirds into the bedding. Locomotor activity was monitored by measuring the distance traveled using an overhead camera and Video Tracker Software (ViewPoint Life Sciences Software, France). A reduction in the number of marbles buried relative to the vehicle condition indicates an anxiolytic drug-like effect.

Compound | PFC [5-HT] (FIG. 2) ([1]; 30 mg/kg IP) | PFC [ACh] (FIG. 4) ([1]; 30 mg/kg IP) | PFC [DA] (FIG. 1) ([1]; 30 mg/kg IP) | PFC [NE] (FIG. 3) ([1]; 30 mg/kg IP) | NAcc [5-HT] (FIG. 6) ([2]; 30 mg/kg IP) | NAcc [ACh] (FIG. 8) ([2]; 30 mg/kg IP) | NAcc [DA] (FIG. 5) ([2]; 30 mg/kg IP) | NAcc [NE] (FIG. 7) ([2]; 30 mg/kg IP) | Delta T ([…]T) (male Sprague-Dawley rats; 1 mg/kg PO) | Marbles Buried (Male C57Bl/6J mice) | Delta T ([…]T) (male Sprague-Dawley rats; 3 mg/kg PO) | PFC [5-HT] (FIG. 2) ([1]; 10 mg/kg IP) | PFC [ACh] (FIG. 4) ([1]; 10 mg/kg IP) | PFC [DA] (FIG. 1) ([1]; 10 mg/kg IP) | PFC [NE] (FIG. 3) ([1]; 10 mg/kg IP) | NAcc [5-HT] (FIG. 6) ([2]; 10 mg/kg IP) | NAcc [ACh] (FIG. 8) ([2]; 10 mg/kg IP) | NAcc [DA] (FIG. 5) ([2]; 10 mg/kg IP) | NAcc [NE] (FIG. 7) ([2]; 10 mg/kg IP) | Delta T ([…]T) (male Sprague-Dawley rats; 0.3 mg/kg PO)
Cc1ccc2c(c1)[C@H](N)[C@H](C)OC2 [Compound 157] | + | − | + | + | − | − | − | + | − | − |  |  |  |  |  |  |  |  |  | 
Cc1cccc2c1[C@@H](N)[C@@H](C)OC2 (single isomer, unassigned) [Compound 170] | − | − | + | + | − | − | − | + |  | − | − |  |  |  |  |  |  |  |  | 
C[C@@H]1OCc2ccccc2[C@H]1N (single isomer, unassigned) [Compound 152] |  |  |  |  |  |  |  |  |  | − |  | + | + | + | + | + | − | − | + | −
